How the values were obtained:
CD8+, IFNγ+ cells [1] = experiment: CD8+, IFNγ+ lymphocytes by flow cytometry, spleen cells of vaccinated mice (Example 8); for CTL Ratio of CD8+, IFNγ+ Lymphocytes: key: N: 1:5000-1:1000; 1N: 1:999-1:750; 2N: 1:749-1:500; 3N: 1:499-1:250; 4N: 1:249-1:200; 5N: 1:199-1:100; type: in vivo, BALB/c mice; conditions: for CTL Ratio of CD8+, IFNγ+ Lymphocytes: female BALB/c mice, s.c. days 0 and 14, spleen cells 11 days after secondary vaccination; for CTL response to the hepatitis vaccine antigen (summary in words): rHBsAg vaccine, s.c. days 0 and 14, mice, CD8+, IFNγ+ flow cytometry
Protocol: Spleen cells were collected from donor mice 11 days after the secondary vaccination and evaluated for CTL activity. The rHBsAg directed CTL was assessed by measurement of CD8+, IFNγ+ using flow cytometry.

[2] = tested on: transfected P815 cell line (P815S); experiment: CTL activity, four hour 51Cr-release assay with spleen cells of vaccinated mice (Example 7); type: in vivo, BALB/c mice; conditions: for Percent Specific Cell Lysis (50:1): 50:1 effector:target ratio, P815S targets, spleen cells 26 days after secondary vaccination, s.c. days 0 and 21, 1 μg rHBsAg ± 1000 μg III ± 5 μg 99
Protocol: Fourteen days after the second injection single cell suspensions are prepared from splenic lymphocytes of 3 mice per group. The spleen cells (75×10^6) are subsequently incubated at 37° C. in 10 ml RP10-SC media containing 50 nM of an L^d-restricted HBV CTL epitope ([…]) for 4 days. Stimulated effector cells are harvested, resuspended to 5×10^6 […] and serially diluted (in triplicate) in a volume of 100 μl RP10-SC/well of a 96 well microtiter plate followed by the addition of […] of RP10-SC containing 1×10^4 51Cr labeled P815S target cells (transfected P815 cells (H-2^d) expressing the hepatitis B S-antigen). Plates are centrifuged for 5 min at 400×g and placed in a 37° C. CO2 incubator for 4 h. Percent specific cytotoxicity is then determined.
(§1) Spleen cells were collected from donor mice 26 days after the secondary vaccination and evaluated for CTL activity. rHBsAg directed specific lysis was assessed in a standard four hour ^51Cr-release assay and by measurement of CD8+, IFNγ+ using flow cytometry.

[3] = tested on: recombinant hepatitis B surface antigen (rHBsAg); experiment: Serum antibody titers to rHBsAg by ELISA after vaccination (Example 8); type: in vivo, BALB/c mice; conditions: for adjuvant activity: serum antibody production (summary in words): rHBsAg vaccine, s.c. days 0 and 14, mice
Protocol: Compounds 40, 42, and 44, were evaluated for adjuvant activity with a model hepatitis B vaccine. These compounds were prepared as aqueous formulations in PBS and admixed with recombinant hepatitis B surface antigen (rHBsAg) with or without the AGP adjuvant 99. Compound 99 was solubilized in an aqueous formulation containing dipalmitoylphosphatidyl choline in water. Mice were administered the vaccines on days 0 and 14 by subcutaneous (s.c.) injection. The antigen-specific immune response to rHBsAg was evaluated by measurement of serum antibody and cytotoxic T lymphocytes (CTL). The results shown in Table 3 confirm the adjuvant activity of compounds of 40, 42, and 44.

[4] = tested on: recombinant hepatitis B surface antigen (rHBsAg); experiment: Serum antibody titers to rHBsAg by ELISA after vaccination (Example 7); type: in vivo, BALB/c mice
Protocol: For the evaluation of antibody responses, […] by vaginal wash and individually tested for HBsAg-specific antibody activity by enzyme-linked immunosorbent assay (ELISA). The endpoint antibody titers of each mouse are evaluated as total IgG, IgG1, IgG2a, IgG2b and IgA specific for rHBsAg.
Compound III, isotucaresol, was evaluated for adjuvant activity with a model hepatitis B vaccine. III, was prepared as an aqueous formulation in PBS and admixed with recombinant hepatitis B surface antigen (rHBsAg) (Rhein Biotech, Düisseldorf, Germany) with or without the AGP adjuvant 99 (2-[(R)-3-tetradecanoyloxytetradecanoylamino]ethyl 2-Deoxy-4-O-phosphono-3-O-[(R)-3-tetradecanoyloxytetradecanoyl]-2-[(R)-3-tetradecanoyloxytetradecanoylamino]-β-D-glucopyranoside Triethylammonium Salt). Mice were administered the vaccines on days 0 and 21 by subcutaneous (s.c.) injection of vaccine containing 1 μg rHBsAg±1000 μg III±5 μg 99. The antigen-specific immune response to rHBsAg was evaluated by measurement of serum antibody and cytotoxic T lymphocytes (CTL).

CD8+, IFNγ+ cells [5] = experiment: CD8+, IFNγ+ lymphocytes by flow cytometry, spleen cells of vaccinated mice (Example 7); note: key: N: 1:5000-1:1000; 1N: 1:999-1:750; 2N: 1:749-1:500; 3N: 1:499-1:250; 4N: 1:249-1:200; 5N: 1:199-1:100; type: in vivo, BALB/c mice; conditions: spleen cells 26 days after secondary vaccination, 75 nM CTL epitope peptide, six-hour incubation; s.c. days 0 and 21, 1 μg rHBsAg ± 1000 μg III ± 5 μg 99
Protocol: as §1

[6] = tested on: sheep red blood cells (SRBC); conditions: cited from earlier work
[7] = adjuvant dose 5 μg with rHBsAg, female BALB/c mice, s.c. days 0 and 14, serum 11 days post-secondary vaccination, ELISA
[8] = female BALB/c mice, s.c. days 0 and 21, 1 μg rHBsAg ± 1000 μg III ± 5 μg 99, serum 21 days post-secondary vaccination, ELISA
[9] = adjuvant dose 250 μg with rHBsAg
[10] = adjuvant dose 500 μg with rHBsAg
[11] = adjuvant dose 1000 μg with rHBsAg
[12] = adjuvant dose 250 μg with rHBsAg, female BALB/c mice, s.c. days 0 and 14, serum 11 days post-secondary vaccination, ELISA
[13] = 1 μg rHBsAg + 1000 μg III + 5 μg 99, s.c. days 0 and 21, mice

2-[(R)-3-tetradecanoyloxytetradecanoylamino]ethyl 2-Deoxy-4-O-phosphono-3-O-[(R)-3-tetradecanoyloxytetradecanoyl]-2-[(R)-3-tetradecanoyloxytetradecanoylamino]-β-D-glucopyranoside triethylammonium salt [Compound 99, reference compound]
CTL Ratio of CD8+, IFNγ+ Lymphocytes (CD8+, IFNγ+ cells [1]; adjuvant dose 5 μg with rHBsAg): 4N | Percent Specific Cell Lysis (50:1) [2]: 5+ (“5+” is 41-50 Percent Specific Cell Lysis) | Gross Geometric Serum Titers IGG [3, 7]: 5,000X | Gross Geometric Serum Titers IgG2a [3, 7]: 5,000X | Gross Geometric Mean Serum Titers IgG1 [4, 8]: 5,000X | Gross Geometric Mean Serum Titers IgG2a [4, 8]: 5,000X | Lymphocytes CD8+, IFNγ+ (ratio of CD8+, IFNγ+ cells to total CD8+ cells) (CD8+, IFNγ+ cells [5]): 3N

COC(=O)c1ccc(COc2ccc(O)c(C=O)c2)cc1 [Compound 40, methyl 4-(3-formyl-4-hydroxyphenoxymethyl)benzoate]
CTL Ratio of CD8+, IFNγ+ Lymphocytes (CD8+, IFNγ+ cells [1]; [9]): 3N | CTL Ratio of CD8+, IFNγ+ Lymphocytes (CD8+, IFNγ+ cells [1]; [10]): 2N | CTL Ratio of CD8+, IFNγ+ Lymphocytes (CD8+, IFNγ+ cells [1]; [11]): 5N | CTL response to the hepatitis vaccine antigen (summary in words) (CD8+, IFNγ+ cells [1]): enhance the CTL response | melting point: 132 to 134 °C | Gross Geometric Serum Titers IgG1 [3, 12]: 1,000X | Gross Geometric Serum Titers IgG1 ([3]; adjuvant dose 500 μg with rHBsAg, female BALB/c mice, s.c. days 0 and 14, serum 11 days post-secondary vaccination, ELISA): 5,000X | Gross Geometric Serum Titers IgG1 ([3]; adjuvant dose 1000 μg with rHBsAg, female BALB/c mice, s.c. days 0 and 14, serum 11 days post-secondary vaccination, ELISA): 5,000X | adjuvant activity: serum antibody production (summary in words) [3]: enhanced serum antibody production

O=Cc1cc(OCc2ccc(C(=O)O)cc2)ccc1OCC(=O)O [Compound 42, 4-[(4-carboxymethoxy-3-formyl-phenoxy)methyl]benzoic acid]
CTL Ratio of CD8+, IFNγ+ Lymphocytes (CD8+, IFNγ+ cells [1]; [9]): 5N | CTL Ratio of CD8+, IFNγ+ Lymphocytes (CD8+, IFNγ+ cells [1]; [10]): 3N | CTL Ratio of CD8+, IFNγ+ Lymphocytes (CD8+, IFNγ+ cells [1]; [11]): 2N | CTL response to the hepatitis vaccine antigen (summary in words) (CD8+, IFNγ+ cells [1]): enhance the CTL response | melting point: 239 to 242 °C (dec.) | Gross Geometric Serum Titers IgG1 [3, 12]: 1,000X | adjuvant activity: serum antibody production (summary in words) [3]: enhanced serum antibody production

O=Cc1cc(OCc2ccc(C(=O)O)cc2)ccc1OCCCC(=O)O [Compound 44]
CTL Ratio of CD8+, IFNγ+ Lymphocytes (CD8+, IFNγ+ cells [1]; [9]): 4N | CTL Ratio of CD8+, IFNγ+ Lymphocytes (CD8+, IFNγ+ cells [1]; [10]): 3N | CTL Ratio of CD8+, IFNγ+ Lymphocytes (CD8+, IFNγ+ cells [1]; [11]): 2N | CTL response to the hepatitis vaccine antigen (summary in words) (CD8+, IFNγ+ cells [1]): enhance the CTL response | adjuvant activity: serum antibody production (summary in words) [3]: enhanced serum antibody production

O=Cc1cc(OCc2ccc(C(=O)O)cc2)ccc1O [Compound III, 4-[(3-formyl-4-hydroxyphenoxy)methyl]benzoic acid]
melting point: 222 to 224 °C (dec.) | effect on the CTL adjuvant activity induced by 99 (summary in words) [2, 13]: additive effect | CTL response to the vaccine antigen (summary in words) ([2]; 1 μg rHBsAg + 1000 μg III, s.c. days 0 and 21, mice, 51Cr-release and CD8+, IFNγ+ flow cytometry): enhances the CTL response | Percent Specific Cell Lysis (50:1) [2]: 4+ (“4+” is 31-40 Percent Specific Cell Lysis) | interaction with the AGP adjuvant 99 on serum antibody (summary in words) [4, 13]: acts synergistically | adjuvant activity: serum antibody production (summary in words) ([4]; 1 μg rHBsAg + 1000 μg III, s.c. days 0 and 21, mice): enhanced serum antibody production | Gross Geometric Mean Serum Titers IgG [4, 8]: 5,000X | Gross Geometric Mean Serum Titers IgG1 [4, 8]: 5,000X | Lymphocytes CD8+, IFNγ+ (ratio of CD8+, IFNγ+ cells to total CD8+ cells) (CD8+, IFNγ+ cells [5]): 2N

C[C@@H]1CC[C@@]2(OC1)O[C@H]1[C@@H](O)[C@H]3[C@@H]4CC[C@H]5C[C@@H](O[C@@H]6O[C@H](CO)[C@H](O[C@@H]7O[C@H](CO)[C@@H](O)[C@H](O[C@@H]8OC[C@@H](O)[C@H](O)[C@H]8O)[C@H]7O[C@@H]7O[C@H](CO)[C@H](O)[C@H](O[C@@H]8O[C@H](CO)[C@@H](O)[C@H](O)[C@H]8O)[C@H]7O)[C@H](O)[C@H]6O)[C@H](O)C[C@]5(C)[C@H]4CC[C@]3(C)[C@H]1[C@@H]2C [digitonin]
hemolytic activity towards red blood cells [6]: highly hemolytic

Source: patent publication US6649172B2, “Amphipathic aldehydes and their uses as adjuvants and immunoeffectors” (Corixa Corporation, priority 2000, dated 2003)
